These results are taken from patent US8501766B2, “Treatment of rheumatoid arthritis with a combination of laquinimod and methotrexate” (Teva Pharmaceutical Industries Ltd., priority 2010, dated 2013).

What all share (format): in vivo, male DBA/1OlaHsd mice
The test system of assay [1] is semi-established type II collagen arthritis. The assay is described as follows: 35 day mouse semi-established type II collagen arthritis: body weight, disease incidence, clinical arthritis scores and AUC. The settings on record: for Reduction of clinical arthritis scores expressed as area under the curve (AUC): days 18-34; for Reduction of clinical arthritis scores expressed as area under the curve (AUC) / Daily clinical arthritis scores: vs vehicle controls. As for the experimental part:
Mouse type II collagen arthritis is an art-recognized animal model for rheumatoid arthritis in humans (Bendele, 2001). […] Mice were terminated on day 34. […] Evaluation of serum anti-type II collagen antibody levels were also performed (groups 1-3, 6 and 8 only). All animals survived to study termination. • 1. […] Mice were anesthetized with Isoflurane and given 150 μl of Bovine Type II collagen in Freund's complete adjuvant injections (Sigma) containing bovine type II collagen (Elastin Products, Owensville, Mo.) (2 mg/ml) at the base of the tail (D0 and day 21). • 3. Mice were randomized by body weight into treatment groups on study day 18. • 4. MTX was provided by Bolder BioPATH, Inc. as a 1 mg/ml stock solution purchased from MWI and was prepared as a 0.05 mg/ml solution in 1% CMC for dosing at 10 ml/kg. • 5. All dose solutions were prepared to deliver at 10 ml/kg (0.3 ml/30 g) mouse. • 6. Treatment is initiated on study day 18 and continued once daily, every day (po, qd) according to Table 1. [table] • 7. During the period of treatment, clinical scores were given for each of the paws (right front, left front, right rear, left rear) according to Table 2. [table] • 8. On days 21-35, onset of arthritis occurred. Mice were weighed on arthritis days 18, 20, 22, 24, 26, 28, 30, 32, and prior to tissue collection on day 34 (final day). • 9. At necropsy, animals from all groups were bled via cardiac puncture for serum and terminated via cervical dislocation. Fore paws, hind paws and knees were removed and placed in 10% NBF. Whole blood was allowed to clot at room temperature for approximately 2 hours before being spun at 13,000 rpm for 8 minutes. • 10. Processing of Joints: Following 1-2 days in fixative and then 4-5 days in decalcifier, the joints were processed, embedded, sectioned and stained with toluidine blue and H&E (2 slides per animal). Only fore and hind paws and knees were processed initially (6 joints/mouse). • 11. Morphologic Pathology Methods: […] Hind paws, fore paws, and knees were embedded and sectioned in the frontal plane. Six joints from each animal were processed for histopathology elevation. • 12. Tissue Processing and Evaluation: • a. place joints in decalcifier, • b. trim joints, wash, process tissues, • c. embed joints, • d. section tissues, stain tissues, • e. histopathologic evaluation, and • f. data processing, QC, prepare graphs and report. Histopathologic Scoring Methods for Mouse Joints with Type II Collagen Arthritis Clinical data for paw scores (means for animal) were analyzed by determining the area under the dosing curve (AUC) for study days 18-34. For calculation of AUC, the daily mean scores for each mouse were entered into Microsoft Excel and the area between the treatment days after the onset of disease to the final day was computed. Means for each group were determined and the percent inhibition from arthritis controls was calculated by comparing values for treated and normal animals. […] Percent inhibition of clinical parameters and AUC is calculated using the following formula: % Inhibition=[…], where A=Mean Disease Control−Mean Normal • B=Mean Treated−Mean Normal Results

The test system is the same in assay [2]. The assay can be described thus: Histopathology of fore paws, hind paws and knees in mouse type II collagen arthritis. As to conditions: vs vehicle controls; for Paw histopathology, reduction of summed scores: 4 paws; for Six-joint mean histopathology, reduction of summed scores: four paws and two knees. The protocol:
Mice were terminated on day 34. […] Evaluation of serum anti-type II collagen antibody levels were also performed (groups 1-3, 6 and 8 only). All animals survived to study termination. • 8. On days 21-35, onset of arthritis occurred. Mice were weighed on arthritis days 18, 20, 22, 24, 26, 28, 30, 32, and prior to tissue collection on day 34 (final day). • 9. At necropsy, animals from all groups were bled via cardiac puncture for serum and terminated via cervical dislocation. Fore paws, hind paws and knees were removed and placed in 10% NBF. Whole blood was allowed to clot at room temperature for approximately 2 hours before being spun at 13,000 rpm for 8 minutes. • 10. Processing of Joints: Following 1-2 days in fixative and then 4-5 days in decalcifier, the joints were processed, embedded, sectioned and stained with toluidine blue and H&E (2 slides per animal). Only fore and hind paws and knees were processed initially (6 joints/mouse). • 11. Morphologic Pathology Methods: […] Hind paws, fore paws, and knees were embedded and sectioned in the frontal plane. Six joints from each animal were processed for histopathology elevation. • 12. Tissue Processing and Evaluation: • a. place joints in decalcifier, • b. trim joints, wash, process tissues, • c. embed joints, • d. section tissues, stain tissues, • e. histopathologic evaluation, and • f. data processing, QC, prepare graphs and report. Histopathologic Scoring Methods for Mouse Joints with Type II Collagen Arthritis When scoring paws or ankles from mice with lesions of type II collagen arthritis, severity of changes as well as number of individual joints affected must be considered. When only 1-3 joints of the paws or ankles out of a possibility of numerous metacarpal/metatarsal/digit or tarsal/tibiotarsal joints were affected, an arbitrary assignment of a maximum score of 1, 2 or 3 for parameters below (Tables 3-6) was given depending on severity of changes. If more than 3 joints were involved, the criteria below (Tables 3-6) were applied to the most severely affected/majority of joints. [table] [table] [table] [table] For each animal, the inflammation, pannus, cartilage damage and bone damage scores was determined for each of the 6 joints submitted. A sum total (all 6 joints) animal score and a six joint mean animal score was determined as well as sums and means for each of the individual parameters. Data were also expressed as means for paws (4 joints) or knees (2 joints). Parameters for the various groups are then compared to disease control animals. Clinical data for paw scores (means for animal) were analyzed by determining the area under the dosing curve (AUC) for study days 18-34. For calculation of AUC, the daily mean scores for each mouse were entered into Microsoft Excel and the area between the treatment days after the onset of disease to the final day was computed. Means for each group were determined and the percent inhibition from arthritis controls was calculated by comparing values for treated and normal animals.

Assay [3] concerns serum anti-type II collagen antibody. The assay can be described thus: Serum anti-type II collagen antibody levels in mouse type II collagen arthritis. As to conditions: vs vehicle controls.
Procedure: Mice were terminated on day 34. […] Evaluation of serum anti-type II collagen antibody levels were also performed (groups 1-3, 6 and 8 only). […] At necropsy, animals from all groups were bled via cardiac puncture for serum and terminated via cervical dislocation. […] Whole blood was allowed to clot at room temperature for approximately 2 hours before being spun at 13,000 rpm for 8 minutes. • 10. […] Histopathologic Scoring Methods for Mouse Joints with Type II Collagen Arthritis Serum analysis for anti-TTC levels was performed on mice from groups 1-3, 6, and 8 only.

With `CN(Cc1cnc2nc(N)nc(N)c2n1)c1ccc(C(=O)N[C@@H](CCC(=O)O)C(=O)O)cc1` [MTX, Methotrexate], the Disease incidence in assay [1] (MTX 0.5 mg/kg po QD, at study termination) is reported as 90%. In assay [1] (MTX 0.5 mg/kg po QD), the “Reduction of clinical arthritis scores expressed as area under the curve (AUC)” value is listed as 50%. For the same molecule, the “Daily clinical arthritis scores” value in assay [1] (MTX 0.5 mg/kg po QD, significant days 27-34) was “significantly reduced”. In addition, in assay [2] (MTX 0.5 mg/kg po QD), the “Paw histopathology, reduction of summed scores” value was 46% and the “Six-joint mean histopathology, reduction of summed scores” value came out at 43%. Moreover, the “Serum Anti-TTC level” value in assay [3] (MTX 0.5 mg/kg po QD) is “not significantly affected”.

On to `CCN(C(=O)c1c(O)c2c(Cl)cccc2n(C)c1=O)c1ccccc1` [Laquinimod], for which the Disease incidence in assay [1] (0.2 mg/kg Laquinimod po QD, by study day 28) was 100%; in assay [1] (1 mg/kg Laquinimod po QD, at study termination) it was 90%; in assay [1] (5 mg/kg Laquinimod po QD), 70%. The “Daily clinical arthritis scores prior to disease occurrence in the vehicle control group” value in assay [1] (0.2 mg/kg Laquinimod po QD, d23) is reported as “significantly elevated”; in assay [1] (1 mg/kg Laquinimod po QD, d22-24) it was “significantly elevated”; in assay [1] (5 mg/kg Laquinimod po QD, d22-23), “significantly elevated”. For the same molecule, the “Reduction of clinical arthritis scores expressed as area under the curve (AUC)” value turned out to be 32% in assay [1] (0.2 mg/kg Laquinimod po QD), 52% in assay [1] (1 mg/kg Laquinimod po QD) and 69% in assay [1] (5 mg/kg Laquinimod po QD). The “Daily clinical arthritis scores” value in assay [1] (0.2 mg/kg Laquinimod po QD, significant d28-34) is on record as “significantly reduced”; in assay [1] (1 mg/kg Laquinimod po QD, significant d25-34) it was “significantly reduced”; in assay [1] (5 mg/kg Laquinimod po QD, significant d24-34), “significantly reduced”. Moreover, the “Paw histopathology, reduction of summed scores” value in assay [2] (1 mg/kg Laquinimod po QD) is reported as 61%. For the same molecule, the “Six-joint mean histopathology, reduction of summed scores” value in assay [2] (1 mg/kg Laquinimod po QD) is listed as 60%. In addition, the “Reduction of knee cartilage damage” value in assay [2] (1 mg/kg Laquinimod po QD) was 62%. Also, in assay [2] (1 mg/kg Laquinimod po QD), the “Reduction of knee inflammation” value worked out at 51%. Besides, the “Reduction of knee pannus” value in assay [2] (1 mg/kg Laquinimod po QD) was determined as 59%. For the same molecule, the “Reduction of summed knee scores” value in assay [2] (1 mg/kg Laquinimod po QD) is 57%. In assay [3] (5 mg/kg Laquinimod po QD), the “Serum Anti-TTC level” value is given as “not significantly affected”.
